In the experiment the test system is nuclear p27 in LNCaP-S14 cells. Type of experiment: cell-based, human.
Setting [1] is: primary screening, nuclear p27 in LNCaP-S14 cells.
Where [2] appears, read: primary screening, S = strong, M = medium, W = weak by Z score.

Read-outs that look alike come from different tables or passages of the source.

As for `CC12CCC(O)CC1CCC1C2CC(O)C2(C)C(C3=CC(=O)OC3)CCC12O` (stereo not shown) [1570B08], the “Z score (aver)” value under setting [1] amounted to 2.80. Moreover, under setting [2], the Clasf entry was “W (weak (Z score 2-3)”.
Turning to `O=c1cc(-c2ccc(O)c(O)c2)oc2cc(O)cc(O)c12` [1570N21], the “Z score (aver)” value under setting [1] came to 3.48. Besides, under setting [2], the Clasf result is reported as “M (medium (Z score 3-5))”.
The corresponding values for `Fc1ccc(-c2cc(NCc3ccc(Cl)cc3)nc(-c3ccncc3)n2)cc1` [1306I08] are 3.44 and “M (medium (Z score 3-5))”.
Take `Clc1ccc(COC(Cn2ccnc2)c2ccc(Cl)cc2Cl)c(Cl)c1` (stereo not shown) [1568M15]: the Clasf entry was “W (key: S: strong (Z score > 5); M: medium (Z score 3-5); W: weak (Z score 2-3)” and the “Z score (aver)” value is reported as 2.54.
`O=C(O)C1CCCNC1` (stereo not shown) [500H10]: the Clasf entry is recorded as “M (key: S: strong (Z score > 5); M: medium (Z score 3-5); W: weak (Z score 2-3)” and the “Z score (aver)” value is on record as 3.12.
In the case of `C=C(NC(=O)C(=C)NC(=O)c1csc(C2=NC3c4csc(n4)C4NC(=O)c5csc(n5)C(C(C)(O)C(C)O)NC(=O)C5CSC(=N5)C(=CC)NC(=O)C(C(C)O)NC(=O)c5csc(n5)C3(CC2)NC(=O)C(C)NC(=O)C(=C)NC(=O)C(C)NC(=O)C(C(C)CC)NC2C=Cc3c(C(C)O)cc(nc3C2O)C(=O)OC4C)n1)C(N)=O` (stereo not shown) [1569J05], the “Z score (aver)” value under setting [1] was 5.60. Further, the Clasf entry under setting [2] was “S (strong (Z score > 5))”.
Taken in the same sequence, the figures for `CCN(C(=O)c1ccc(C(C)(C)C)cc1)c1ccc(Sc2nc(C)cc(C)n2)cc1` [519P04] were 5.16 and “S (strong (Z score > 5))”.
The corresponding values for `CC(C)c1ccc(NC(=O)N2CCCN(CCOc3ccccc3)CC2)cc1` [1520P16] are 2.72 and “W (weak (Z score 2-3)”.
Turning to `COC12C(COC(N)=O)C3=C(C(=O)C(C)=C(N)C3=O)N1CC1NC12` (stereo not shown) [503O09], the Clasf result is reported as “M (key: S: strong (Z score > 5); M: medium (Z score 3-5); W: weak (Z score 2-3)” and the “Z score (aver)” value is 4.55.
Turning to `CSc1ccc2c(c1)N(CCC1CCCCN1C)c1ccccc1S2.Cl` (stereo not shown) [1568O17], the Clasf result was “W (key: S: strong (Z score > 5); M: medium (Z score 3-5); W: weak (Z score 2-3)” and the “Z score (aver)” value is listed as 2.51.
On to `O=C(NCCCn1ccnc1)OCc1ccc(C#Cc2ccccc2)s1` [567M14], for which the “Z score (aver)” value under setting [1] came out at 2.83. Moreover, under setting [2], the Clasf result is reported as “W (weak (Z score 2-3)”.
Turning to `CCC1(O)C(=O)OCc2c1cc1n(c2=O)Cc2cc3c(O)cccc3nc2-1` (stereo not shown) [1361B06], under setting [1], the “Z score (aver)” value was 7.99. The Clasf entry under setting [2] is listed as “S (strong (Z score > 5))”.
The corresponding values for `COC(=O)c1c(-c2c(Cl)cccc2Cl)noc1C=CN(C)C` [1306I21] are 4.49 and “M (medium (Z score 3-5))”.
With `COc1ccc(C2=NN3C(C2)c2cc(Cl)ccc2OC32CCCC2)cc1` (stereo not shown) [1157E14], the “Z score (aver)” value under setting [1] is given as 4.67. Also, the Clasf entry under setting [2] is listed as “M (medium (Z score 3-5))”.
The corresponding values for `Cc1c2ccncc2c(C)c2c1[nH]c1ccccc12` [1569L10] are 2.59 and “W (weak (Z score 2-3)”.
The corresponding values for `CCN(C(=S)Nc1cccc(C(F)(F)F)c1)c1ccccc1` [541K01] are 4.12 and “M (medium (Z score 3-5))”.
The corresponding values for `Cc1[nH]cnc1-c1ccc(C(F)(F)F)cc1` [522D05] are 3.87 and “M (medium (Z score 3-5))”.
On to `O=C(CSC1=NNC(c2ccccn2)S1)c1cccc(F)c1` (stereo not shown) [1520D17], for which the “Z score (aver)” value under setting [1] is on record as 4.91. Besides, the Clasf result under setting [2] was “M (medium (Z score 3-5))”.
The corresponding values for `COc1ccc(Br)cc1C1CC(=O)Nc2c1ccc1ccccc21` (stereo not shown) [1159L15] are 2.32 and “W (weak (Z score 2-3)”.
The corresponding values for `CC(=O)C1C(c2cccc(I)c2)C(C#N)(C#N)C2C=Cc3ccccc3N12` (stereo not shown) [669K10] are 3.55 and “M (medium (Z score 3-5))”.

The record behind these values is article PMC3025922 (BMC Biology, 2010).
